# Reference: patent publication US6127382A, “Amines substituted with a tetrahydroquinolinyl group an aryl or heteroaryl group and an alkyl group, having retinoid-like biological activity” (Allergan Sales, Inc., priority 1999, dated 2000)
# Positions count from the first letter of the chain named.
# How the values were obtained:
# RXRγ [1] = target: T1, RXRγ (Homo sapiens, UniProt P48443); test: ligand binding assay, RXRγ; details: read-out: RXR Bind Ki γ
# T1 sequence (P48443 1-463): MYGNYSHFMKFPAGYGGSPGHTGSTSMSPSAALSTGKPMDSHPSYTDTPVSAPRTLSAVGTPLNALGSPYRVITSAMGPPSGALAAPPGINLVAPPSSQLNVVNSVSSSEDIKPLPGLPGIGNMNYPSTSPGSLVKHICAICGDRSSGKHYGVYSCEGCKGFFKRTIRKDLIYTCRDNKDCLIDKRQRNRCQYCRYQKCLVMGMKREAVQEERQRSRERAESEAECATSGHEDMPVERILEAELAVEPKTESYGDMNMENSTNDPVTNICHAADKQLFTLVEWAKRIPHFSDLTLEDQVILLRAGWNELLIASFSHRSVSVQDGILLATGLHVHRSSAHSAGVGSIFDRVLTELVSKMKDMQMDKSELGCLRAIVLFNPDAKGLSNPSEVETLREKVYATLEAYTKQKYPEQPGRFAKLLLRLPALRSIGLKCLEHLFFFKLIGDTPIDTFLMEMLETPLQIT
# Excerpt: (§1) Other assays described below, measure the ability of the compounds of the present invention to bind to, and/or activate various retinoid receptor subtypes. When in these assays a compound binds to a given receptor subtype and activates the transcription of a reporter gene through that subtype, then the compound is considered an agonist of that receptor subtype. […] In the below described assays the ability of the compounds to bind to RARα, RARβ, RARγ, RXRα, RXRβ and RXRγ receptors, and the ability or inability of the compounds to activate transcription of a reporter gene through these receptor subtypes can be tested. […] However, some of the compounds of the invention may behave as retinoid antagonists or partial antagonists and/or as inverse agonists. Because of the complex distribution of the different retinoid receptors in various organs of the mammalian body partial agonists and partial antagonists and compounds which have the characteristics of both may lend themselves to particularly useful therapeutic applications and may avoid serious side effects of conventional retinoid drugs.
# (§2) A holoreceptor transactivation assay and a ligand binding assay which measure the antagonist/agonist like activity of the compounds of the invention, or their ability to bind to the several retinoid receptor subtypes, respectively, are described in published PCT Application No. WO WO93/11755 (particularly on pages 30-33 and 37-41) published on Jun. 24, 1993, the specification of which is also incorporated herein by reference. A detailed experimental procedure for holoreceptor transactivations has been described by Heyman et al. Cell 68, 397-406, (1992); Allegretto et al. J. Biol. Chem. 268, 26625-26633, and Mangelsdorf et al. The Retinoids: Biology, Chemistry and Medicine, pp 319-349, Raven Press Ltd., New York, which are expressly incorporated herein by reference. The results obtained in this assay are expressed in EC50 numbers, as they are also in the chimeric receptor transactivation assay. The results of ligand binding assay are expressed in Kd numbers. (See Cheng et al. Biochemical Pharmacology Vol. 22 pp 3099-3108, expressly incorporated herein by reference.)
# (§3) Table 1 discloses the activity of certain exemplary compounds of the invention in the above-described chimeric receptor transactivation assay, holoreceptor transactivation assay and a ligand binding assays. Particularly, the transactivation data pertaining to RAR receptors were obtained in the chimeric assay, and the data pertaining to transactivation of RXR receptors were obtained in the holoreceptor transactivation assay.
# RXRα = target: T2, RXRα (Homo sapiens, UniProt P19793); test: holoreceptor transactivation assay, RXRα; type: cell-based; details: for EC50: holoreceptor assay, read-out: RXR Trans EC50 α; for Emax: relative to 10^-6 M cyclopropyl penta-2,4-dienoic acid reference, read-out: % efficacy, RXRα transactivation
# T2 construct: expressed in transfected cells
# T2 sequence (P19793 1-462): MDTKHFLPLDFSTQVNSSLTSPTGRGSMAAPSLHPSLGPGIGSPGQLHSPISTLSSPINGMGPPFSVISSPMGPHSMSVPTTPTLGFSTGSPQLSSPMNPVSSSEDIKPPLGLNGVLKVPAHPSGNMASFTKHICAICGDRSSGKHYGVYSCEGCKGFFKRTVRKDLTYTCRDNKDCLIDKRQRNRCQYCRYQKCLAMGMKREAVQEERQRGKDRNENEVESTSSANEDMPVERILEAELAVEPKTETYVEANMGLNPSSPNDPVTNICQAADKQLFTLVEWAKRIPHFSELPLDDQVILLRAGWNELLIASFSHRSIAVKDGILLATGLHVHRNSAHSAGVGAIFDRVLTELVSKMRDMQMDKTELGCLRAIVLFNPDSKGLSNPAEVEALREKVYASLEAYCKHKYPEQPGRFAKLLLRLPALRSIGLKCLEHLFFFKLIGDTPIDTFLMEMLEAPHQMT
# Excerpt: as §1, §2, §3
# RXRγ [2] = target: T3, RXRγ (Mus musculus, UniProt P28705); test: holoreceptor transactivation assay, RXRγ; type: cell-based; details: for EC50: holoreceptor assay, read-out: RXR Trans EC50 γ; for Emax: relative to 10^-6 M cyclopropyl penta-2,4-dienoic acid reference, read-out: % efficacy, RXRγ transactivation
# T3 construct: expressed in transfected cells
# T3 sequence (P28705 1-463): T1 sequence (P48443 1-463) with A13T, Y15F, A31V, S34P, T228S, G230S, M258V, T450S
# Excerpt: as §1, §2, §3
# RXRβ = target: T4, RXRβ (Homo sapiens, UniProt P28702); test: ligand binding assay, RXRβ; details: read-out: RXR Bind Ki β
# T4 sequence (P28702 1-533): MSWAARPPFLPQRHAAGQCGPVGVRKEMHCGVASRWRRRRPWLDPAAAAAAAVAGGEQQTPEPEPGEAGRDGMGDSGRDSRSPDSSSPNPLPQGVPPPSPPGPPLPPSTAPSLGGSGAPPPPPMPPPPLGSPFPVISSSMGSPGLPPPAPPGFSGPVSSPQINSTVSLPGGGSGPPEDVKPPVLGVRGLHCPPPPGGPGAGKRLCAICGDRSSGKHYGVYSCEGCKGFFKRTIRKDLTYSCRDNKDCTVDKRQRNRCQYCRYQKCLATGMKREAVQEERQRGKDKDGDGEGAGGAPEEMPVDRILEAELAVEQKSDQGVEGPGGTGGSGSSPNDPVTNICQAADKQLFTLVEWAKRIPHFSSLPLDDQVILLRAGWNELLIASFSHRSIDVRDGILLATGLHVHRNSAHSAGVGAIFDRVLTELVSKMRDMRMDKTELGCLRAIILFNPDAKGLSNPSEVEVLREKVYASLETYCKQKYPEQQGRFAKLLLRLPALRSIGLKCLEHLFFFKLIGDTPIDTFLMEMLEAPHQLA
# Excerpt: as §1, §2, §3
Structure (SMILES),Ki (RXRγ [1]),EC50 (RXRα),Emax (RXRα),EC50 (RXRγ [2]),Emax (RXRγ [2]),Ki (RXRβ)
"CCN(c1ccc(C(=O)O)cc1)c1ccc2c(c1)C(C)(C)CC(=O)N2C(C)C [Compound 6, 4-[(1-Isopropyl-4,4-dimethyl-2-oxo-1,2,3,4-tetrahydroquinolin-6-yl)ethylamino]benzoic Acid]",> 10000 nM,1000 nM,50%,–,–,–
"CC(C)N1CCC(C)(C)c2cc(N(C)c3ccc(C(=O)O)cc3)ccc21 [Compound 10, 4-[(1-Isopropyl-4,4-dimethyl-1,2,3,4-tetrahydroquinolin-6-yl)methylamino]benzoic Acid]",> 10000 nM,1000 nM,70%,1000 nM,50%,> 1000 nM
"CCN(c1ccc(C(=O)O)cc1)c1ccc2c(c1)C(C)(C)CCN2C(C)C [Compound 12, 4-[(1-Isopropyl-4,4-dimethyl-1,2,3,4-tetrahydroquinolin-6-yl)ethylamino]benzoic acid]",1300 nM,78 nM,134%,148 nM,150%,273 nM
"CC(C)CCN(c1ccc(C(=O)O)cc1)c1ccc2c(c1)C(C)(C)CCN2C(C)C [Compound 14, 4-[(1-Isopropyl-4,4-dimethyl-1,2,3,4-tetrahydroquinolin-6-yl)(3-methylbutyl)amino]-benzoic Acid]",> 1000 nM,–,–,–,–,778 nM
"Cc1cc2c(cc1N(C)c1ccc(C(=O)O)cc1)C(C)(C)CCN2C(C)C [Compound 22, 4-[(1-Isopropyl-4,4,7-trimethyl-1,2,3,4-tetrahydroquinolin-6-yl)methylamino]benzoic acid]",> 1000 nM,1000 nM,80%,1000 nM,100%,1100 nM
"CCN(c1ccc(C(=O)O)cc1)c1cc2c(cc1C)N(C(C)C)CCC2(C)C [Compound 24, 4-[(1-Isopropyl-4,4,7-trimethyl-1,2,3,4-tetrahydroquinolin-6-yl)ethylamino]benzoic acid]",> 1000 nM,36 nM,90%,69 nM,117%,1100 nM

# Further lines, results first:
Ki (RXRγ [1]),EC50 (RXRα),Emax (RXRα),EC50 (RXRγ [2]),Emax (RXRγ [2]),Ki (RXRβ),Structure (SMILES)
1300 nM,> 1000 nM,25%,1000 nM,75%,386 nM,"Cc1cc2c(cc1N(CC1CC1)c1ccc(C(=O)O)cc1)C(C)(C)CCN2C(C)C [Compound 26, 4-[(1-Isopropyl-4,4,7-trimethyl-1,2,3,4-tetrahydro-quinolin-6-yl)(cyclopropylmethyl)amino]benzoic acid]"
27 nM,0.6 nM,114%,1 nM,109%,57 nM,"CCN(c1ccc(C(=O)O)cc1)c1ccc2c(c1)N(C(C)C)CCC2(C)C [Compound 38, 4-[(1-Isopropyl-4,4-dimethyl-1,2,3,4-tetrahydroquinolin-7-yl)ethylamino]benzoic acid]"
60 nM,1 nM,121%,2 nM,112%,133 nM,"CC(C)CN(c1ccc(C(=O)O)cc1)c1ccc2c(c1)N(C(C)C)CCC2(C)C [Compound 39, 4-[(1-Isopropyl-4,4-dimethyl-1 2,3,4-tetrahydroquinolin-7-yl)isobutylamino]benzoic acid]"
34 nM,0.1 nM,110%,0.2 nM,105%,42 nM,"CC(C)N1CCC(C)(C)c2ccc(N(CC3CC3)c3ccc(C(=O)O)cc3)cc21 [Compound 40, 4-[(1-Isolpropyl-4,4-dimethyl-1,2,3,4-tetrahydroquinolin-7-yl)(cylopropylmethyl)amino]benzoic acid]"
> 1000 nM,4 nM,103%,4 nM,102%,262 nM,"Cc1cc2c(cc1Nc1ccc(C(=O)O)cc1)N(C(C)C)CCC2(C)C [Compound 50, 4-(1-Isopropyl-4,4,6-trimethyl-1,2,3,4-tetrahydro-quinolin-7-ylamino)-benzoic acid]"
317 nM,32 nM,92%,47 nM,104%,142 nM,"Cc1cc2c(cc1N(C)c1ccc(C(=O)O)cc1)N(C(C)C)CCC2(C)C [Compound 51, 4-[(1-Isopropyl-4,4,6-trimethyl-1,2,3,4-tetrahydro-quinolin-7-yl)-methyl-amino]-benzoic acid]"
38 nM,0.2 nM,94%,0.5 nM,96%,99 nM,"CCN(c1ccc(C(=O)O)cc1)c1cc2c(cc1C)C(C)(C)CCN2C(C)C [Compound 52, 4-[-(1-Isopropyl-4,4,6-trimethyl-1,2,3,4-tetrahydro-quinolin-7-yl)ethylamino]-benzoic acid]"
95 nM,0.2 nM,92%,0.3 nM,96%,43 nM,"CCCN(c1ccc(C(=O)O)cc1)c1cc2c(cc1C)C(C)(C)CCN2C(C)C [Compound 53, 4-[(1-Isopropyl-4,4,6-trimethyl-1,2,3,4-tetrahydro-quinolin-7-yl)-propyl-amino]-benzoic acid]"
